According to paper PMC8622623, “Histamine H3 Receptor Ligands—KSK-59 and KSK-73—Reduce Body Weight Gain in a Rat Model of Excessive Eating” (Pharmaceuticals, 2021):
Like-named read-outs stand apart in the source and are kept apart here.

How the values were obtained:
[1] = biological target: T1, H3 histamine receptor (Homo sapiens, UniProt Q9Y5N1); experiment: Lance cAMP intrinsic activity assay (antagonist dose-response); assay type: cell-based
T1 construct: host or cells: recombinant frozen ready-to-use cells
Procedure: Intrinsic activity studies were performed by two methods, Aequoscreen and Lance cAMP assays according to the manufacturer of the ready to use cells with stable expression of the H3 histamine receptor (Perkin Elmer, Waltham, MA, USA).
The LANCE Ultra cAMP assay as a homogeneous time-resolved fluorescence resonance energy transfer (TR-FRET) immunoassay is designed to measure cAMP produced upon modulation of adenylyl cyclase activity by GPCRs. The assay is based on the competition between the europium (Eu) chelate-labeled cAMP tracer and sample cAMP for binding sites on cAMP-specific monoclonal antibodies labeled with the ULight dye.
For measurement cells (frozen, ready to use) were thawed and resuspended in 4 mL of HBSS 1X. Then cells suspension was placed in a 15 mL Falcon tube and centrifuged for 10 min at 275× g. Pellet was resuspended in 1.5 mL HBSS 1X to determine cells concentration, and after next centrifugation cells were resuspended in stimulation buffer at appropriate concentration. […] Cell stimulation was performed for 30 min at RT°, and the agonist and antagonists were added simultaneously.

[2] = in vitro; settings: PAMPA, pH 7.4
Procedure: The reference compounds, well-permeable caffeine and low-permeable norfloxacin were obtained from Sigma-Aldrich (St. Louis, MO, USA). Used for this study, pre-coated PAMPA Plate System Gentest™ was provided by Corning (Tewksbury, MA, USA). The system consisted of 96-well receiver filter plate pre-coated with structured layers of phospholipids and a donor microplate. The assay was performed as described previously. […] After 5 h of incubation at RT° the UPLC-MS spectrometry (Waters ACQUITY™ TQD system with the TQ Detector, Waters, Milford, MA, USA) method was used to estimate the quantity of compounds that penetrated from donor to acceptor wells. The permeability coefficients (Pe, cm/s) were calculated using the formulas provided by Corning.

[3] = tested on: female Wistar rats; experiment: Visceral illness via kaolin intake (pica behavior); assay type: in vivo; settings: for kaolin clay intake: single i.p. 10 mg/kg b.w.; for kaolin clay intake / water intake (pica model): vs control group that received i.p. CuSO4; for kaolin intake: KSK compounds 10 mg/kg or bupropion/naltrexone, vs vehicle control and CuSO4 control
Procedure: The method was based on the works by Takeda et al. and Yamamoto et al. with minor modification. The experiment lasted for five days. In addition to free access to feed, animals had also free access to a white kaolin. For the first few days, the animals were accustomed to the presence of kaolin in their cages. […] Moreover, animals were weighed before the compounds administration and 24 h after.

[4] = tested on: non-obese rats fed palatable diet; experiment: Spontaneous activity (RFID TraffiCage); assay type: in vivo, female Wistar rats; settings: KSK compounds 10 mg/kg, vs control fed palatable diet; for spontaneous activity after chronic administration: 27th day, i.p.; for spontaneous activity after first administration: day 1, i.p.
Procedure: The spontaneous activity of rats was measured on the 1st and 27th day of the treatment with a special RFID-system—TraffiCage (TSE-Systems, Germany). The animals were subcutaneously implanted with transmitter identification (RFID), which enabled the presence and time spent in different areas of the cage to be counted and then the data were grouped in a special computer program.

[5] = Pharmacokinetics after single i.p. administration; assay type: in vivo; settings: single i.p. 10 mg/kg; for AUC(0-inf) / Cmax / Tmax / CL/F / MRT / k el / Vd/F / half-life: ip; for AUC(0-inf): heading: AUC0-inf; for CL/F: read-out: CLS/F (clearance) (converted); for MRT: read-out: MRT (mean residence time); for k el: read-out: λz (terminal elimination rate constant) (converted); for Vd/F / half-life: rat, plasma; for Vd/F: n = 3, read-out: Vz/F (volume of distribution); for half-life: n = 3, read-out: t0.5λz (half-life) (converted)
Procedure: Six rats divided into two experimental groups were used in pharmacokinetic experiments. Three days before the experiment, rats’ jugular vein was cannulated allowing for the multiple blood sampling from the single animal. Investigated compounds suspended in 1% Tween 80 were administered i.p. at the single dose of 10 mg/kg. Blood samples (approximately 300 µL) were collected to Eppendorf tubes containing heparin at 5, 15, 30, 60, 120, 240 and 360 min after dosing. Plasma was harvested by centrifuging at 5000× g for 10 min and stored at −30 °C until bioanalysis.
Plasma concentrations of KSK-59 or KSK-73 were measured by liquid chromatography tandem mass spectrometry (LC-MS/MS) method. Samples (50 μL) were deproteinized at the ratio of 1:3 (v/v) with acetonitrile containing an internal standard (IS—pentoxifiline), briefly vortexed and then centrifuged for 10 min at the speed of 8000× g (Eppendorf miniSpin centrifuge). The supernatant was transferred into the autosampler vials and a sample volume of 10 μL was injected into LC-MS/MS system.
Chromatographic separation was carried out on XBridge™ C18 (3 × 50 mm, 5 µm, Waters, Dublin, Ireland) analytical column using the HPLC system Agilent 1100 (Agilent Technologies, Waldbronn, Germany). The mobile phase containing 0.1% formic acid in acetonitrile and in water was run at 0.3 mL/min in the gradient mode. Mass spectrometric detection was performed on an Applied Biosystems MDS Sciex (Concord, ON, Canada) API 2000 triple quadrupole mass spectrometer. Electrospray ionization (ESI) in the positive ion mode was used for ion production. The tandem mass spectrometer was operated at unit resolution in the selected reaction monitoring mode (SRM), monitoring the transitions of the protonated molecular ions m/z 382 to 107 for KSK-59, m/z 410 to 107 for KSK-73 and m/z 279 to 181 for IS. Data acquisition and processing were accomplished using the Applied Biosystems Analyst version 1.6 software. The calibration curves were constructed by plotting the ratio of the peak area of the studied compound to IS versus drug concentration and generated by weighted (1/x·x) linear regression analysis. The validated quantitation ranges were from 1 to 2000 ng/mL. Calculated accuracy and precision were within the ranges proposed by guidelines for bioanalytical methods validation (FDA, EMA). No significant matrix effect was observed and there were no stability related problems during the routine analysis of the samples.
Pharmacokinetic parameters were calculated by employing a non-compartmental approach, using Monolix version 2019R1 (Antony, France: Lixoft SAS, 2019) software. The area under the mean plasma concentration versus time curve extrapolated to infinity (AUC0-inf) was estimated using the log/linear trapezoidal rule. AUMC0-inf was estimated by calculation of total area under the first-moment curve by combining trapezoid calculation of AUMC0-t and extrapolated area. The mean residence time (MRT) was calculated from AUMC0-inf/AUC0-inf. The terminal rate constant (λz) was calculated by log-linear regression of the drug concentration data in the terminal phase and the terminal half-life (t1/2) were calculated as 0.693/λz. The clearance (CL/F) was estimated from the administered dose divided by AUC0-inf. The apparent volume of distribution during terminal phase (Vz/F) was calculated from (CL/F)/λz.

[6] = design: method as in PMID 31362197; settings: PAMPA, published previously ref 17; cited from earlier work
[7] = antagonist dose-response with reference agonist (R)-alpha-methylhistamine at EC80, read-out: Lance cAMP IC50
[8] = text summary over both methods (Lance cAMP and Aequoscreen), read-out: IC50 value

T1 sequence (Q9Y5N1 whole entry): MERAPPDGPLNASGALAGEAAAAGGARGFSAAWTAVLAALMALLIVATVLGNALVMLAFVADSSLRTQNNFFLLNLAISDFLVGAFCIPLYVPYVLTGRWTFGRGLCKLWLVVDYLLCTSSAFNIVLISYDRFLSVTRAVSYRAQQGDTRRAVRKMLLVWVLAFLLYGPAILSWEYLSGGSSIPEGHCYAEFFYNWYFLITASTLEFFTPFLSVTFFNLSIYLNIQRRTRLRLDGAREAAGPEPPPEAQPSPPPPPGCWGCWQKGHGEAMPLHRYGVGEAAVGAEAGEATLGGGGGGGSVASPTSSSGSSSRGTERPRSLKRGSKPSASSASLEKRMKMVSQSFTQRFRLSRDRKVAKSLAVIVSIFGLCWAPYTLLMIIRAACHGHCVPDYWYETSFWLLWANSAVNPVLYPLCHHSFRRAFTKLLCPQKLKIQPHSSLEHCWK

| Compound | IC50 [1, 7] | IC50 [1, 8] | kaolin clay intake [3] | water intake (pica model) ([3]; single i.p., 24 h) | kaolin intake ([3]; single i.p., 24 h) | spontaneous activity after chronic administration [4] | spontaneous activity after first administration [4] | AUC(0-inf) ([5]; 10 mg/kg, rat plasma, n = 3) | Cmax ([5]; rat plasma, n = 3) | Tmax ([5]; rat plasma, n = 3) | CL/F ([5]; rat plasma, n = 3) | MRT ([5]; rat plasma, n = 3) | k el ([5]; rat plasma, n = 3) | time at which Cmax was reached (first sampling point) ([5]; rat plasma) | Vd/F ([5]; 10 mg/kg) | half-life ([5]; 10 mg/kg) | other results |
| --- | --- | --- | --- | --- | --- | --- | --- | --- | --- | --- | --- | --- | --- | --- | --- | --- | --- |
| CC(=O)c1ccc(OCCCCCCN2CCN(c3ccncc3)CC2)cc1.O=C(O)C(=O)O [KSK-59, 1-(4-((6-(4-(pyridin-4-yl)piperazin-1-yl)hexyl)oxy)phenyl)ethan-1-one oxalate] | 3.79 ± 0.4 nM | ~3 nM | consumed significantly less kaolin clay | lower water intake | did not consume more kaolin | did not affect spontaneous activity | did not affect spontaneous activity | 538 ng·h/mL | 96 ng/mL | 4.98 min | 1120 mL/min/kg | 2.04 h | 0.000122 s⁻¹ | 5 min | 152 L/kg | 1.6 h | Papp at 5 h, 200 µM [2]: 4.35 ± 0.93 ×10⁻⁶ cm/s; Vz/F (volume of distribution) ([5]; rat plasma, n = 3, 10 mg/kg): 152.22 L/kg; t0.5λz (half-life) ([5]; rat plasma, n = 3, 10 mg/kg): 1.58 h |
| CC(=O)c1ccc(OCCCCCCCCN2CCN(c3ccncc3)CC2)cc1.O=C(O)C(=O)O [KSK-73, 1-(4-((8-(4-(pyridin-4-yl)piperazin-1-yl)octyl)oxy)phenyl)ethan-1-one oxalate] | 10.5 ± 1.5 nM | 10 to 20 nM | consumed significantly less kaolin clay | lower water intake | did not consume more kaolin | no such changes were observed | statistically significant decrease in spontaneous activity | 888 ng·h/mL | 216 ng/mL | 4.98 min | 675 mL/min/kg | 4.2 h | 5.28e-05 s⁻¹ | 5 min | 216 L/kg | 3.7 h | calorie intake (pica model) ([3]; single i.p., 24 h, vs vehicle control): consumed fewer calories; Pe (permeability coefficient) ± SD [6]: 6.22 ± 2.3 10^−6 cm/s |
